Assay results reported in the supplement of paper PMC10307832.

Columns and labels:
Assay in all cases: relative viability (nuclei count vs DMSO), 5 days (fraction); higher = more cells survive
Zosuquidar + Navitoclax = compound: O[C@@H](COc1cccc2ncccc12)CN1CCN([C@@H]2c3ccccc3[C@@H]3[C@H](c4ccccc42)C3(F)F)CC1 [Zosuquidar] + CC1(C)CCC(c2ccc(Cl)cc2)=C(CN2CCN(c3ccc(C(=O)NS(=O)(=O)c4ccc(N[C@H](CCN5CCOCC5)CSc5ccccc5)c(S(=O)(=O)C(F)(F)F)c4)cc3)CC2)C1 [Navitoclax] (partner 0.5 µM)
How it was run: (§1)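 Each reported value is a median over duplicate plates. It expresses relative viability: treated-well nuclei count divided by vehicle-well nuclei count. Lung cancer cell lines in 1536-well plates were dosed by pin tool a day after seeding, alone with one drug or with a fixed anchor-drug dose plus five library-drug doses (not always all listed) in √10 steps, and nuclei were counted after 5 days.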

[1] = compound: COc1cc2nccc(Oc3ccc(NC(=O)C4(C(=O)Nc5ccc(F)cc5)CC4)cc3)c2cc1OC [Cabozantinib] + Cc1cc(Nc2cc(N3CCN(C)CC3)nc(Sc3ccc(NC(=O)C4CC4)cc3)n2)n[nH]1 [Tozasertib] (partner 0.1 µM)
How it was run: as §1

Kobe2602 + Alpelisib = compound: C1=CC(=CC=C1NC(=S)NNC2=C(C=C(C=C2[N+](=O)[O-])C(F)(F)F)[N+](=O)[O-])F [Kobe2602] + Cc1nc(NC(=O)N2CCC[C@H]2C(N)=O)sc1-c1ccnc(C(C)(C)C(F)(F)F)c1 [Alpelisib] (partner 2 µM)
How it was run: as §1

Zosuquidar + AZD7762 = compound: O[C@@H](COc1cccc2ncccc12)CN1CCN([C@@H]2c3ccccc3[C@@H]3[C@H](c4ccccc42)C3(F)F)CC1 [Zosuquidar] + NC(=O)Nc1cc(-c2cccc(F)c2)sc1C(=O)N[C@H]1CCCNC1 [AZD7762] (partner 0.2 µM)
How it was run: as §1

Cell Line | relative viability (Zosuquidar + Navitoclax; first compound 0.01 µM) | relative viability (Zosuquidar + Navitoclax; first compound 0.03162 µM) | relative viability (Zosuquidar + Navitoclax; first compound 0.1 µM) | relative viability (Zosuquidar + Navitoclax; first compound 0.3162 µM) | relative viability (Zosuquidar + Navitoclax; first compound 1 µM) | relative viability ([1]; first compound 0.02 µM) | relative viability ([1]; first compound 0.06325 µM) | relative viability ([1]; first compound 0.2 µM) | relative viability ([1]; first compound 0.6325 µM) | relative viability ([1]; first compound 2 µM) | relative viability (Kobe2602 + Alpelisib; first compound 0.2 µM) | relative viability (Kobe2602 + Alpelisib; first compound 0.6325 µM) | relative viability (Kobe2602 + Alpelisib; first compound 2 µM) | relative viability (Kobe2602 + Alpelisib; first compound 6.325 µM) | relative viability (Kobe2602 + Alpelisib; first compound 20 µM) | relative viability (Zosuquidar + AZD7762; first compound 0.01 µM) | relative viability (Zosuquidar + AZD7762; first compound 0.03162 µM) | relative viability (Zosuquidar + AZD7762; first compound 0.1 µM) | relative viability (Zosuquidar + AZD7762; first compound 0.3162 µM) | relative viability (Zosuquidar + AZD7762; first compound 1 µM)
HCC-366 | 0.97 | 1.18 | 1.02 | 1.01 | 1.09 | 0.705 | 0.108 | 0.101 | 0.065 | 0.0583 | 0.364 | 0.493 | 0.309 | 0.429 | 0.496 | 0.23 | 0.227 | 0.285 | 0.369 | 0.298
NCI-H3122 | 1.04 | 0.98 | 1.05 | 1.02 | 1.01 | 0.412 | 0.431 | 0.385 | 0.42 | 0.458 | 0.807 | 0.753 | 0.764 | 0.784 | 0.885 | 0.812 | 0.916 | 0.844 | 1.01 | 1
NCI-H1355 | 1.06 | 0.951 | 0.797 | 0.954 | 1 | 0.583 | 0.66 | 0.502 | 0.503 | 0.356 | 0.791 | 0.938 | 0.79 | 0.751 | 0.845 | 0.777 | 0.778 | 0.733 | 0.797 | 0.86
NCI-H2170 | 0.651 | 0.626 | 0.557 | 0.673 | 0.571 | 0.738 | 0.8 | 0.733 | 0.748 | 0.734 | 0.807 | 0.86 | 0.794 | 0.726 | 0.772 | 0.866 | 0.916 | 0.776 | 0.898 | 0.858
NCI-H1734 | 0.922 | 0.925 | 0.754 | 0.862 | 0.787 | 0.292 | 0.284 | 0.275 | 0.286 | 0.214 | 0.71 | 0.816 | 0.665 | 0.726 | 0.784 | 0.526 | 0.515 | 0.563 | 0.599 | 0.514
LXF-289 | 0.934 | 0.957 | 0.911 | 0.952 | 1.02 | 0.206 | 0.198 | 0.171 | 0.218 | 0.208 | 1.01 | 1.02 | 0.976 | 1.06 | 0.994 | 1.13 | 1.18 | 1.07 | 1.12 | 1.14
NCI-H2087 | 0.968 | 0.994 | 0.965 | 1.18 | 1.08 | 0.271 | 0.24 | 0.225 | 0.248 | 0.204 | 1.27 | 1.08 | 1.09 | 1.11 | 1.03 | 1.22 | 1.39 | 1.32 | 1.41 | 1.26
HCC-78 | 1.04 | 0.768 | – | 0.839 | 0.736 | – | 0.414 | 0.445 | 0.367 | 0.311 | 0.359 | 0.359 | – | 0.391 | 0.445 | 0.685 | – | – | 0.72 | 0.524
NCI-H1793 | 0.407 | 0.444 | – | 0.499 | 0.396 | 0.663 | 0.427 | 0.271 | 0.257 | 0.169 | 0.629 | 0.615 | 0.589 | 0.684 | 0.847 | 0.519 | – | – | 0.516 | 0.692
H3255 | 0.513 | 0.492 | 0.537 | 0.608 | 0.436 | 0.605 | 1.34 | – | 0.471 | 0.775 | 0.655 | 0.679 | 0.662 | 0.63 | 0.741 | 1.03 | 0.832 | 0.766 | 0.95 | 0.795
HCC-15 | 0.723 | 0.702 | 0.683 | 0.665 | 0.667 | 0.462 | 0.432 | 0.437 | 0.44 | 0.267 | 0.797 | 0.938 | 0.875 | 0.849 | 0.885 | 1.11 | 1.27 | 1.17 | 1.18 | 1.16
PC-14 | 1.05 | 0.988 | 0.983 | 0.934 | 0.959 | 0.656 | 0.668 | – | 0.547 | 0.526 | 0.822 | 0.948 | 0.863 | 0.962 | 0.989 | 0.3 | 0.372 | 0.314 | 0.363 | 0.344
HCC-44 | 0.959 | 1.02 | 1.04 | 1.02 | 1.17 | – | 1.27 | 0.979 | 1 | 0.758 | 0.852 | 0.793 | 0.767 | 0.725 | 0.737 | 1.02 | 1.11 | 1.02 | 1.01 | 1
EMC-BAC-2 | 1.19 | 0.795 | 1.05 | 1.18 | 1.12 | 0.292 | 0.335 | 0.334 | 0.284 | 0.295 | 0.745 | 0.827 | 0.733 | 0.817 | 0.738 | 1.1 | 1.15 | 1.11 | 1.26 | 0.979
NCI-H1395 | 1.11 | 1.08 | 1.12 | 1.28 | 1.15 | 0.796 | 0.779 | 0.794 | 0.756 | 0.719 | 1.05 | 1.29 | 1.09 | 1.14 | 1.03 | 0.398 | 0.373 | – | 0.409 | 0.429
NCI-H23 | 0.765 | 0.96 | 0.746 | 0.79 | 0.862 | – | 0.47 | 0.387 | 0.325 | 0.292 | 0.669 | 0.863 | 0.68 | 0.829 | 0.811 | 0.319 | – | 0.2 | 0.331 | 0.224
